Here are results for 14 compounds from US20250120989A1, “BRIDGED TRICYCLIC CARBAMOYLPYRIDONE COMPOUNDS AND USES THEREOF” (priority 2023, published 2025).

One data set relates to HIV-1 (IIIB). As to the kind of experiment: microbe, parasite or virus in culture. The conditions noted are these: Human immunodeficiency virus 1, MT4, 120 h; HIV-1 (IIIB) replication in MT-4 cells, 5 days, Cell Titer Glo; read-out: MT4 EC50. In kind it is cell-based.
The next data set is described as follows: in vitro. The conditions noted are these: human, uninfected MT-4 cells.
The next data set in a line: physchem. The conditions noted are these: FaSSIF, 23 °C, thermodynamic from solid.

≈ marks a conversion by molar mass, not a printed value.

With `CC[C@H](COC(=O)OCOc1c2n(cc(C(=O)NCc3ccc(F)cc3F)c1=O)[C@@H]1CN(C2=O)[C@@H](C)CC[C@]12CC(OC)=NO2)OP(=O)(O)O` [Compound 65, (((3′S,5S,7′R)-10′-((2,4-difluorobenzyl)carbamoyl)-3-methoxy-3′-methyl-1′,11′-dioxo-1′,4′,5′,11′-tetrahydro-3′H,4H,7′H-spiro[isoxazole-5,6′-[2,7]methanopyrido[1,2-a][1,4]diazonin]-12′-yl)oxy)methyl ((R)-2-(phosphonooxy)butyl) carbonate], in the data set on HIV-1 (IIIB), the 50% effective concentration (EC50) was 0.00102 µM. Further, in “in vitro”, half-maximal cytotoxicity (CC50 at 5 days) was put at 14.1 µM. Also, the thermodynamic solubility at 24 h in the data set “physchem” turned out to be 3880 µg/mL (≈ 5.33 mM).
For `COC1=NO[C@@]2(CC[C@H](C)N3C[C@H]2n2cc(C(=O)NCc4ccc(F)cc4F)c(=O)c(OCOC(=O)O[C@@H](C)[C@H](C)OP(=O)(O)O)c2C3=O)C1` [Compound 29, (((3′S,5S,7′R)-10′-((2,4-difluorobenzyl)carbamoyl)-3-methoxy-3′-methyl-1′,11′-dioxo-1′,4′,5′,11′-tetrahydro-3′H,4H,7′H-spiro[isoxazole-5,6′-[2,7]methanopyrido[1,2-a][1,4]diazonin]-12′-yl)oxy)methyl ((2S,3S)-3-(phosphonooxy)butan-2-yl) carbonate], in the data set with HIV-1 (IIIB), the EC50 amounted to 0.00487 µM. Further, in “in vitro”, the CC50 at 5 days is 29 µM. In the data set “physchem”, this compound displayed a solubility (thermodynamic) at 24 h of 4880 µg/mL (≈ 6.7 mM).
As to `COC1=NO[C@@]2(CC[C@H](C)N3C[C@H]2n2cc(C(=O)NCc4ccc(F)cc4F)c(=O)c(OCOC(=O)O[C@H](C)[C@@H](C)OP(=O)(O)O)c2C3=O)C1` [Compound 61, (((3′S,5S,7′R)-10′-((2,4-difluorobenzyl)carbamoyl)-3-methoxy-3′-methyl-1′,11′-dioxo-1′,4′,5′,11′-tetrahydro-3′H,4H,7′H-spiro[isoxazole-5,6′-[2,7]methanopyrido[1,2-a][1,4]diazonin]-12′-yl)oxy)methyl ((2R,3R)-3-(phosphonooxy)butan-2-yl) carbonate], the EC50 in the data set on HIV-1 (IIIB) was determined as 0.00235 µM. The compound also returned a CC50 at 5 days in “in vitro” of 20.9 µM. The compound also displayed a thermodynamic solubility at 24 h in the data set “physchem” of 4800 µg/mL (≈ 6.58 mM).
With `COC1=NO[C@@]2(CC[C@H](C)N3C[C@H]2n2cc(C(=O)NCc4ccc(F)cc4F)c(=O)c(OCOC(=O)O[C@@H](C)[C@@H](C)OP(=O)(O)O)c2C3=O)C1` [Compound 59, (((3′S,5S,7′R)-10′-((2,4-difluorobenzyl)carbamoyl)-3-methoxy-3′-methyl-1′,11′-dioxo-1′,4′,5′,11′-tetrahydro-3′H,4H,7′H-spiro[isoxazole-5,6′-[2,7]methanopyrido[1,2-a][1,4]diazonin]-12′-yl)oxy)methyl ((2S,3R)-3-(phosphonooxy)butan-2-yl) carbonate], the half-maximal effective concentration (EC50) with HIV-1 (IIIB) was 0.00204 µM. The compound further returned a CC50 at 5 days in “in vitro” of 18.8 µM. Moreover, in the data set “physchem”, the thermodynamic solubility at 24 h came to 5240 µg/mL (≈ 7.19 mM).
The corresponding values for `CC1=NO[C@@]2(CC[C@H](C)N3C[C@H]2n2cc(C(=O)NCc4ccc(F)cc4F)c(=O)c(OCOC(=O)O[C@H](C)C[C@@H](C)OP(=O)(O)O)c2C3=O)C1` [Compound 31, (((3′S,5S,7′R)-10′-((2,4-difluorobenzyl)carbamoyl)-3,3′-dimethyl-1′,11′-dioxo-1′,4′,5′,11′-tetrahydro-3′H,4H,7′H-spiro[isoxazole-5,6′-[2,7]methanopyrido[1,2-a][1,4]diazonin]-12′-yl)oxy)methyl ((2R,4R)-4-(phosphonooxy)pentan-2-yl) carbonate] are 0.0035 µM, 12.9 µM and 4620 µg/mL (≈ 6.37 mM).
On to `CC[C@@H](COC(=O)OCOc1c2n(cc(C(=O)NCc3ccc(F)cc3F)c1=O)[C@@H]1CN(C2=O)[C@@H](C)CC[C@]12CC(C)=NO2)OP(=O)(O)O` [Compound 66, (((3′S,5S,7′R)-10′-((2,4-difluorobenzyl)carbamoyl)-3,3′-dimethyl-1′,11′-dioxo-1′,4′,5′,11′-tetrahydro-3′H,4H,7′H-spiro[isoxazole-5,6′-[2,7]methanopyrido[1,2-a][1,4]diazonin]-12′-yl)oxy)methyl ((S)-2-(phosphonooxy)butyl) carbonate], for which the EC50 in the data set on HIV-1 (IIIB) is 0.00207 µM. Moreover, half-maximal cytotoxicity in the data set “in vitro” (CC50 at 5 days) was put at 12.8 µM. Further, the thermodynamic solubility at 24 h in “physchem” amounted to 4270 µg/mL (≈ 5.99 mM).
`CC1=NO[C@@]2(CC[C@H](C)N3C[C@H]2n2cc(C(=O)NCc4ccc(F)cc4F)c(=O)c(OCOC(=O)O[C@H](C)[C@H](C)OP(=O)(O)O)c2C3=O)C1` [Compound 58, (((3′S,5S,7′R)-10′-((2,4-difluorobenzyl)carbamoyl)-3,3′-dimethyl-1′,11′-dioxo-1′,4′,5′,11′-tetrahydro-3′H,4H,7′H-spiro[isoxazole-5,6′-[2,7]methanopyrido[1,2-a][1,4]diazonin]-12′-yl)oxy)methyl ((2R,3S)-3-(phosphonooxy)butan-2-yl) carbonate]: the EC50 in the data set on HIV-1 (IIIB) worked out at 0.00211 µM. The compound also registered a cytotoxic concentration (CC50) at 5 days in the data set “in vitro” of 24.2 µM. Moreover, the solubility (thermodynamic) at 24 h in “physchem” amounted to 4860 µg/mL (≈ 6.82 mM).
For the compound `CC[C@H](COC(=O)OCOc1c2n(cc(C(=O)NCc3ccc(F)cc3F)c1=O)[C@@H]1CN(C2=O)[C@@H](C)CC[C@]12CC(C)=NO2)OP(=O)(O)O` [Compound 64, (((3′S,5S,7′R)-10′-((2,4-difluorobenzyl)carbamoyl)-3,3′-dimethyl-1′,11′-dioxo-1′,4′,5′,11′-tetrahydro-3′H,4H,7′H-spiro[isoxazole-5,6′-[2,7]methanopyrido[1,2-a][1,4]diazonin]-12′-yl)oxy)methyl ((R)-2-(phosphonooxy)butyl) carbonate], the EC50 in the data set on HIV-1 (IIIB) stood at 0.00124 µM. In the data set “in vitro”, this compound registered a CC50 at 5 days of 13.6 µM. This compound had a thermodynamic solubility at 24 h in the data set “physchem” of 4840 µg/mL (≈ 6.8 mM).
On to `CC[C@H](COP(=O)(O)O)OC(=O)OCOc1c2n(cc(C(=O)NCc3ccc(F)cc3F)c1=O)[C@@H]1CN(C2=O)[C@@H](C)CC[C@]12CC(C)=NO2` [Compound 25, (((3′S,5S,7′R)-10′-((2,4-difluorobenzyl)carbamoyl)-3,3′-dimethyl-1′,11′-dioxo-1′,4′,5′,11′-tetrahydro-3′H,4H,7′H-spiro[isoxazole-5,6′-[2,7]methanopyrido[1,2-a][1,4]diazonin]-12′-yl)oxy)methyl ((R)-1-(phosphonooxy)butan-2-yl) carbonate], for which the EC50 in the data set on HIV-1 (IIIB) came out at 0.00221 µM. The compound also displayed a CC50 at 5 days in “in vitro” of 13.9 µM. The solubility (thermodynamic) at 24 h in “physchem” is 5130 µg/mL (≈ 7.2 mM).
As for `CC1=NO[C@@]2(CC[C@H](C)N3C[C@H]2n2cc(C(=O)NCc4ccc(F)cc4F)c(=O)c(OC(=O)OC[C@H](C)OP(=O)(O)O)c2C3=O)C1` [Compound 39, (3′S,5S,7′R)-10′-((2,4-difluorobenzyl)carbamoyl)-3,3′-dimethyl-1′,11′-dioxo-1′,4′,5′,11′-tetrahydro-3′H,4H,7′H-spiro[isoxazole-5,6′-[2,7]methanopyrido[1,2-a][1,4]diazonin]-12′-yl ((S)-2-(phosphonooxy)propyl) carbonate], in the data set with HIV-1 (IIIB), the 50% effective concentration (EC50) turned out to be 0.0016 µM. The cytotoxic concentration (CC50) at 5 days in the data set “in vitro” is 16.1 µM. In “physchem”, this compound yielded a solubility (thermodynamic) at 24 h of 2660 µg/mL (≈ 3.97 mM).
For `COC1=NO[C@@]2(CC[C@H](C)N3C[C@H]2n2cc(C(=O)NCc4ccc(F)cc4F)c(=O)c(OCOC(=O)OCC(C)(C)COP(=O)(O)O)c2C3=O)C1` [Compound 32, (((3′S,5S,7′R)-10′-((2,4-difluorobenzyl)carbamoyl)-3-methoxy-3′-methyl-1′,11′-dioxo-1′,4′,5′,11′-tetrahydro-3′H,4H,7′H-spiro[isoxazole-5,6′-[2,7]methanopyrido[1,2-a][1,4]diazonin]-12′-yl)oxy)methyl (2,2-dimethyl-3-(phosphonooxy)propyl) carbonate] the same measures were 0.00292 µM, 17.7 µM and 4800 µg/mL (≈ 6.47 mM).
For `CC1=NO[C@@]2(CC[C@H](C)N3C[C@H]2n2cc(C(=O)NCc4ccc(F)cc4F)c(=O)c(OCOC(=O)OCC(C)(C)N(C)C(=O)OCOP(=O)(O)O)c2C3=O)C1` [Compound 36, (phosphonooxy)methyl (1-((((((3′S,5S,7′R)-10′-((2,4-difluorobenzyl)carbamoyl)-3,3′-dimethyl-1′,11′-dioxo-1′,4′,5′,11′-tetrahydro-3′H,4H,7′H-spiro[isoxazole-5,6′-[2,7]methanopyrido[1,2-a][1,4]diazonin]-12′-yl)oxy)methoxy)carbonyl)oxy)-2-methylpropan-2-yl)(methyl)carbamate] the same measures were 0.00122 µM, 9.33 µM and 5060 µg/mL (≈ 6.32 mM).
Turning to `CC1=NO[C@@]2(CC[C@H](C)N3C[C@H]2n2cc(C(=O)NCc4ccc(F)cc4F)c(=O)c(OCOC(=O)OC(C)(C)COP(=O)(O)O)c2C3=O)C1` [Compound 62, (((3′S,5S,7′R)-10′-((2,4-difluorobenzyl)carbamoyl)-3,3′-dimethyl-1′,11′-dioxo-1′,4′,5′,11′-tetrahydro-3′H,4H,7′H-spiro[isoxazole-5,6′-[2,7]methanopyrido[1,2-a][1,4]diazonin]-12′-yl)oxy)methyl (2-methyl-1-(phosphonooxy)propan-2-yl) carbonate], the concentration for a half-maximal effect (EC50) in the data set with HIV-1 (IIIB) is 0.00258 µM. This compound also returned a CC50 at 5 days in the data set “in vitro” of 28.1 µM. In “physchem”, this compound displayed a solubility (thermodynamic) at 24 h of 5040 µg/mL (≈ 7.08 mM).
Consider `COC1=NO[C@@]2(CC[C@H](C)N3C[C@H]2n2cc(C(=O)NCc4ccc(F)cc4F)c(=O)c(OCOC(=O)O[C@@H](C)COP(=O)(O)O)c2C3=O)C1` [Compound 24, (((3′S,5S,7′R)-10′-((2,4-difluorobenzyl)carbamoyl)-3-methoxy-3′-methyl-1′,11′-dioxo-1′,4′,5′,11′-tetrahydro-3′H,4H,7′H-spiro[isoxazole-5,6′-[2,7]methanopyrido[1,2-a][1,4]diazonin]-12′-yl)oxy)methyl ((S)-1-(phosphonooxy)propan-2-yl) carbonate], for which, in the data set with HIV-1 (IIIB), the 50% effective concentration (EC50) was 0.00229 µM. This compound also showed a CC50 at 5 days in “in vitro” of 17.1 µM. In addition, the thermodynamic solubility at 24 h in “physchem” came out at 5000 µg/mL (≈ 7 mM).
